Results on two molecules are retold here after BindingDB's records for doi:10.1016/s0960-894x(98)00019-5 (Abbott Laboratories, 1999).

As a reminder, the IC50 is the midpoint of a concentration-inhibition curve. A low value points to greater potency in that assay.

This experiment in a line: Inhibitory concentration to antagonise cation efflux in nAChR subtype human alpha3betaX, expressed in IMR-32 cells.

In the case of `CCCc1cncc(OC[C@@H]2CCCN2C)c1` [3-((S)-1-Methyl-pyrrolidin-2-ylmethoxy)-5-propyl-pyridine], the IC50 amounted to 3.2 µM.

The molecule `CCCCc1cncc(OC[C@@H]2CCCN2C)c1` [3-Butyl-5-((S)-1-methyl-pyrrolidin-2-ylmethoxy)-pyridine] had an IC50 of 5 µM.
